# From PMC5527305, “Prevention of Ophthalmia Neonatorum Caused by Neisseria gonorrhoeae Using a Fatty Acid-Based Formulation” (mBio, 2017)
# Assays:
# [1] = system: N. gonorrhoeae strain NCCP11945; experiment: Growth inhibition screen on GC solid media containing 1 mM candidate; assay type: cell-based, Neisseria gonorrhoeae; details: 1 mM candidate in GC agar media; Yes = strain NCCP11945 did not grow
# Experimental: (§1) To find potential candidates, 37 organic acids, esters, and salts were tested in a two-tiered screening process. These candidates were chosen based on the carbon chain lengths of the fatty acids, the presence or absence of saturation, and modifications to represent a diverse selection of organic acid candidates. The first screen aimed to determine the ability of each compound to inhibit the growth of N. gonorrhoeae strain NCCP11945 at 1 mM in GC solid media (Table 1). This strain was chosen due to its relatively recent isolation, its antibiotic resistance profile, and the availability of a complete genome sequence. Those candidates able to inhibit the growth of N. gonorrhoeae strain NCCP11945 were investigated in a second assay. The second assay tested the ability of each compound to cause at least a 4-log reduction in viable bacteria at 1 mM with a 2-min exposure time (Table 1).
# (§2) The well-characterized N. gonorrhoeae NCCP11945 strain ([36]) was used in the screening stage. Eight isolates obtained from Public Health England, representing circulating isolates from various European locations, were used in the log reduction assays. All isolates were cultured for 24 h prior to testing by plating on GC solid medium (Oxoid Limited, Hampshire, United Kingdom) with Kellogg supplements and incubation at 37°C and 5% CO2 ([37]).
# [2] = system: N. gonorrhoeae strain NCCP11945; experiment: Log reduction assay in GC broth, 2-min exposure; assay type: cell-based, Neisseria gonorrhoeae
# Experimental: as §1
# (§3) Log reductions were done as described by Bergsson and coworkers ([18]). Briefly, cells were suspended in GC broth (18 g/liter GC base [Oxoid, Limited] with added defined supplements) to an optical density at 520 nm of 0.3, which is approximately equivalent to 10^7 to 10^8 cells per ml ([38]). […] The contents of the tubes were then mixed at room temperature for 2 min and immediately diluted in a 10-fold dilution series to 10^−4. The dilutions were plated by spreading 10 µl on a quarter of a plate; a 100-µl neat solution was also plated. Plates were then incubated at 37°C for 48 h, with all samples plated in duplicate. […] Additional testing at lower concentrations was also done on the eight clinical isolates of European origin.
# [3] = system: nine gonococcal isolates (strain NCCP11945 and eight isolates from Public Health England); experiment: Minimum bactericidal concentration by log reduction against nine gonococcal isolates; assay type: cell-based, Neisseria gonorrhoeae
# From the text: The seven candidates were further tested against nine gonococcal isolates, including strain NCCP11945 and eight isolates from Public Health England, to find their minimal bactericidal concentration (MBC). This was defined as the lowest concentration tested to give an average 4-log10 reduction in bacterial count after a 2-min exposure. […] Any candidate that killed all gonococcal cells in the cell suspension was given a log reduction score of six.
# as §2, §3
# [4] = system: bovine cornea; experiment: Bovine corneal opacity and permeability (BCOP) test
# Experimental: Bovine eyes were collected from a local slaughter house (ABP, Guildford, Surrey, United Kingdom) and were transported in cold saline solution for testing at the laboratory. Each eye was first visually examined for signs of damage before use. The test was conducted as detailed by Abdelkader and coworkers ([21]). The exposure time of the test substances was 30 s. The selected bactericidal compounds were tested at 1 mM in saline solution, with a corresponding vehicle control (1% ethanol–saline solution) also performed. […] The test area of the cornea was then washed with 10 ml saline solution. Corneal damage to the test area was assessed by fluorescein staining and examination under a cobalt blue filter. Pathological scoring based on opacity, epithelial integrity, and epithelial detachment was done in accordance with previous publications ([19]). Each of the seven lead candidates was tested in triplicate, and each test was performed on a separate day using a different batch of eyeballs. Corneal histology was done as outlined by Abdelkader and coworkers ([21]) by evaluating the damage to the epithelial layer and stroma of the cornea after hematoxylin and eosin staining.
# [5] = system: bovine RBCs; experiment: Red blood cell (RBC) lysis assay; assay type: cell-based
# Experimental: Whole bovine blood was obtained from a local slaughter house (ABP), adding 90 ml blood to 10 ml 110 mM trisodium citrate anticoagulant. RBCs were isolated the same day. The RBCs were washed by three repeats of centrifugation (1,500 × g for 10 min) and resuspension in phosphate-buffered saline (PBS) with 10 mM glucose (PBSG). Testing was done following the guidelines of the European Union Reference Laboratory for alternatives to animal testing (EURL-ECVAM) ([22]). The organic acids were solubilized in dimethyl sulfoxide (DMSO) and diluted to a maximum DMSO concentration of 10%. In a 2-ml centrifuge tube, 750 µl of the sample was added to 250 µl RBCs. Controls used in the assay were a complete lysis control (deionized water) and a fragility control (PBSG–10% DMSO). Samples were shaken at room temperature for 1 h and then centrifuged at 14,000 × g for 2 min. An aliquot of 750 µl of the supernatant was taken and its absorbance at 451 nm measured.
# [6] = system: N. gonorrhoeae on human corneal epithelial cells; experiment: LIVE/DEAD staining of gonococcus-infected human corneal epithelial cells; assay type: cell-based, Neisseria gonorrhoeae; details: 1 mM
# Experimental: The LIVE/DEAD BacLight bacterial viability kit for microscopy (Life Technologies, Inc.) was used according to manufacturer’s instructions. After the course of infection, the culture wells were washed five times with sterile 0.85% NaCl to remove nonadhered bacterial cells. Stain was added to each well for 15 min at room temperature before washing in 0.85% saline solution was performed. Glass coverslips were mounted in BacLight mounting oil and visualized on a Nikon Eclipse i80 fluorescence microscope (Nikon United Kingdom) as detailed above.
# [7] = system: C. trachomatis; design: method as in PMID 9736551; details: cited from earlier work
# [8] = system: N. gonorrhoeae; design: method as in PMID 10543766; details: cited from earlier work
smiles,measurement,setting,value
CCCCCCCCCC(=O)OCC(O)CO (stereo not shown) [Monocaprin],Growth inhibition,[1],Yes
same,Log reduction at 1 mM: at least a 4-log reduction in viable bacteria (Yes/No),[2],Yes
same,Log reduction at 1 mM (calculated log reduction in viable bacteria),[2]; maximum score 6 = all cells killed,> 6 log10
same,Killing of all gonococcal cells for all isolates,"[3]; 1 mM, 2 min",killed all gonococcal cells for all isolates
same,MBC,[3]; lowest concentration giving mean log reduction above 4 from a 2-min exposure,500 µM
same,Mean cumulative BCOP score,"[4]; 1 mM in saline solution, 30 s exposure, triplicate",lower than 0.5
same,Fluorescein staining of cornea,"[4]; 1 mM, around rubber application ring",any sign of fluorescein staining
same,BCOP irritancy classification,"[4]; candidates 1 mM in saline, controls 0.5 M NaOH, 100% acetone, 30 s exposure",nonirritants
same,H50 concentration relative to MBC,[5],greater than their MBCs
same,LIVE/DEAD staining of bacteria on infected corneal cells,[6],only dead bacterial cells
same,Viable bacteria recovered from treated wells,[6],No viable bacteria were recovered
same,Activity against C. trachomatis,[7],bactericidal
same,Antigonococcal properties,[8],strong antigonococcal properties
